Experimental data taken from US11357766B2, “Compositions and methods for treating cancer” (Texas Tech University System, priority 2017, dated 2022).
Like-named read-outs stand apart in the source and are kept apart here.

Key:
[1] = tested on: AsPC1, BxPC3, PANC1, MIAPaCa2, PO2, A375VR, SKMEL-28, HCT-116, 4T1, U87, U251, T98G, CT2A cells; experiment: Cytotoxicity studies, sulforhodamine B (SRB) assay; format: cell-based, human and murine; conditions: range over all the cell lines, read-out: IC50 (cell survival)
Procedure: FIGS. 1A to 1E show the effect of Pimavanserin tartrate suppresses the cell survival of pancreatic cancer cells. FIGS. 1F to 1G show the effect of pimavanserin tartrate suppresses the cell survival of melanoma cells. […] In the figures, the following cancer cells were evaluated: AsPC1 cells (FIG. 1A), BxPC3 cells (FIG. 1B), PANC1 cells (FIG. 1C), MIAPaCa2 cells (FIG. 1D), PO2 cells (FIG. 1E), A375VR cells (FIG. 1F), SKMEL-28 cells (FIG. 1G), HCT-116 cells (FIG. 1H), 4T1 cells (FIG. 1I), U87 cells (FIG. 1J), U251 cells (FIG. 1K), T98G vells (FIG. 1L), CT2A cells (FIG. 1M) which were treated with varied concentrations of pimavanserin tartrate for 24, 48 and 72 hours. Cell survival was determined by sulforhodamine B assay to estimate the IC50 values. The studies were repeated independently for three times with 4 replicates in each test. Values are plotted as mean±SD and the statistical significance level was considered as p<0.05.
Cell culture. Human pancreatic cancer cell lines AsPC1, BxPC3, PANC1, MIAPaCa2 cells, SKMEL-28 human melanoma cells, U87, U251, T98G human glioblastoma cells, and human colon cancer cell line HCT-116 were purchased from ATCC (Rockville, Md.). CT2A murine glioblastoma cells was a kind gift from Dr. Jill Edgar, Boston College, Boston. Cell lines were authenticated by STR analysis at TTUHSC core facilities (Lubbock, Tex.). […]
Cytotoxicity studies. The cytotoxic effects of pimavanserin tartrate in AsPC1, BxPC3, PANC1, MIAPaCa2, PO2, A375VR, SKMEL-28, HCT-116, 4T1, U87, U251, T98G, CT2A cells were determined by sulforhodamine B (SRB) assay. […] The optical density was measured using plate reader (Biotek instruments) as described by the present inventors (12).
Pimavanserin inhibited the proliferation of cancer cells, which included pancreatic cancer, melanoma, colon cancer, glioblastoma and breast cancer cells. The cytotoxic effects of pimavanserin were evaluated by SRB assay in the above mentioned cancer cells. […]

[2] = tested on: subcutaneously implanted BxPC3 tumors; experiment: Pancreatic tumor xenograft model; format: in vivo; conditions: 10 mg/kg oral gavage everyday
Procedure: Briefly, In FIG. 4A 1×10^6 BxPC3 cells in 1:1 mixture of PBS and matrigel were subcutaneously implanted in the right flank of 4-6 week old female athymic nude mice (n=5). […] The treatment was given till day 40. Values are plotted as mean±SEM. FIG. 4B orthotopic tumors were aseptically removed and the tumor size was compared between control and pimavanserin treated group. In FIG. 4C mice weight was recorded once in 10 days. The average weight of the mice is plotted against days. Values are plotted as mean±SEM.
Pancreatic tumor xenograft model. Female athymic nude mice (4-6 week old) were purchased from Harlan Laboratory (Livermore, Calif.). All the experiments were performed under the strict compliance and regulations approved from Institutional Animal Care and Use Committee (IACUC), Texas Tech University Health Sciences Center, Amarillo, Tex. 1×10^6 BxPC3 cells were implanted in right flank of the mice. […] Group I was assigned as control group, which received the vehicle only (PBS). Group II mice received 10 mg/kg Pimavanserin tartrate by oral gavage everyday. Treatment with Pimavanserin was started at day 13. Tumor growth was monitored by measuring the tumor volume twice a week until day 40 using a Vernier caliper as described by the present inventors (11). The study was terminated at day 40 due to tumor burden. The mice were euthanized and the tumors were aseptically removed. A part of tumor was snap frozen for western blotting and the other part was fixed in formalin for immunohistochemistry and TUNEL analysis. Mice weight was monitored once in ten days.
Pimavanserin suppresses the growth of subcutaneously implanted pancreatic tumors. To examine the in-vivo efficacy of pimavanserin and to establish the mechanism of tumor growth inhibition in pancreatic cancer, BxPC3 cells were implanted subcutaneously in female athymic nude mice. Once the tumor volume reached 70 mm^3 in size, experimental group of mice were treated with 10 mg/kg pimavanserin by oral gavage everyday. […]

[3] = tested on: behavioral activity of mice; experiment: Mice behavioral analysis (Versamax); format: in vivo; conditions: after 67 days of 10 mg/kg; mice bearing orthotopic pancreatic tumors
Procedure: In orthotopic experiment, behavioral activity was measured using Versamax (Accuscan instruments) after 67 days of oral administration of 10 mg/kg pimavanserin tartrate. The following were measured, in FIG. 6A total distance; FIG. 6B horizontal activity' FIG. 6C vertical activity; and FIG. 6D ambulatory activity. Values are plotted as mean±SEM.
Mice behavioral analysis. In orthotopic studies, the behavioral activity of mice was analyzed after chronic administration of pimavanserin tartrate for […]. The behavioral analysis was performed by Versamax (Accuscan Instruments Inc., Columbus, Ohio, USA) as previously described by the present inventors (7, 12).
Pimavanserin tartrate is an anti-psychotic drug used for the treatment of Parkinson disease. Owing to its action on the central nervous system, the behavioral activity of mice after long-term pimavanserin tartrate administration was assessed. The behavioral activity of mice was monitored after 67 days of 10 mg/kg pimavanserin treatment using Versamax (Accuscan Instruments Inc.).

pancreatic cancer cells = experiment: Glycolysis, mitochondrial respiration and marker expression in pancreatic cancer cells; format: cell-based

Q: What does the source list for `CC(C)COc1ccc(CNC(=O)N(Cc2ccc(F)cc2)C2CCN(C)CC2)cc1` [pimavanserin, N-(4-fluorophenylmethyl)-N-(1-methylpiperidin-4-yl)-N′-(4-(2-methylpropyloxy)phenylmethyl)carbamide]?
A: IC50 ([1]; 24 hours): 7 to 15 µM; IC50 ([1]; 48 hours): 3 to 8 µM; IC50 ([1]; 72 hours): 3 to 8 µM; average tumor volume at the day of sacrifice ([2]; day 40, control group 873.395 mm3): 429.01 mm3; overall weight of mice vs control (general signs of toxicity) ([2]; throughout the study): similar; suppression of growth of BxPC3 tumors ([2]; vs control): 50%; behavioral activity parameters (total distance, horizontal, vertical and ambulatory activity) vs control [3]: did not change; cleavage of caspase3 and PARP (pancreatic cancer cells; Western blot): increasing; expression of main metabolic markers Hexokinase-1, LDH-A and FOXM1 (pancreatic cancer cells; Western blot): inhibits; glycolysis and mitochondrial respiration (pancreatic cancer cells; pancreatic cancer cells): inhibits; key oncogenic markers pAkt(S473), pSTAT3 (Y705 & S727), β-catenin, Cyclin D1, Mc1-1, HER2, EGFR, VEGFR2, c-Myc, CD44, Oct-4 (pancreatic cancer cells; pancreatic cancer cells): inhibiting
